The record followed here is PubChem BioAssay AID1549 (Sanford-Burnham Center for Chemical Genomics, 2009).

Active and inactive are the calls of the source. How the calls were made is not given here.

The assay deals with Influenza A virus M2 proton channel (A/TW/4845/1999 H1N1). The assay is described as follows: NMR binding screen, influenza A virus M2 proton channel, Kd (AID 1549). The conditions noted are these: M2 protein.
By Kd is commonly meant the free concentration of one partner at which half of the binding sites on the other are occupied at equilibrium, for simple one-to-one binding. Regarding `O=c1cccc2n1C[C@H]1CNCC2C1`, the Kd is > 4 mM (inactive).
The result for `CC(=O)Nc1cccc(N2C(=O)CCC2=O)c1` reads > 4 mM (inactive).
The result for `CN(C)c1oc(-c2ccccc2Cl)nc1C#N` reads > 4 mM (inactive).
In the case of `Cc1ccccc1NC(=O)c1ocnc1C` it was > 4 mM (inactive); in that of `Nc1cccc(S(=O)(=O)N2CCCCC2)c1`, > 4 mM (inactive).
On to `Cn1nc(-c2ccccc2)cc1N`, for which the Kd was > 4 mM (inactive).
The result for `CC(=O)Nc1cccc(-c2nnc3n2CC(C)S3)c1` (configuration not stated) reads > 4 mM (inactive); that for `CN1CCN(c2cc(=O)n(C)c(=O)[nH]2)CC1`, > 4 mM (inactive); that for `CN1C2CCC1CC(OC(=O)C(CO)c1ccccc1)C2` (configuration not stated), > 4 mM (inactive).
The result for `COc1c(C(C)C)oc2cc3oc(=O)ccc3cc12` reads > 4 mM (inactive).
The result for `Cn1nnc2cc(C(=O)N3CCSCC3)ccc21` reads > 4 mM (inactive); that for `COc1ccccc1NC(=O)c1cc[n+]([O-])cc1`, > 4 mM (inactive); that for `Cc1oc(-c2ccccc2)cc1C(=O)O`, > 4 mM (inactive).
On to `Cc1cc(C(=O)NCc2cccs2)c(C)o1`, for which the Kd was > 4 mM (inactive).
The result for `O=C1CCNc2cc3ccccc3cc21` reads > 4 mM (inactive); that for `O=C1CS/C(=N/S(=O)(=O)c2ccccc2)N1`, > 4 mM (inactive); that for `O=C(O)CCc1c[nH]c2ccccc12`, > 4 mM (inactive).
In the case of `CN(C)C(=S)Nc1ccccc1N1CCOCC1` it was > 4 mM (inactive); in that of `Cc1nc(N)sc1C(=O)N/N=C/c1ccncc1`, > 4 mM (inactive); in that of `COc1ccc2cc1Oc1ccc(cc1)C[C@H]1c3cc(c(OC)cc3CCN1C)Oc1c(OC)c(OC)cc3c1[C@H](C2)N(C)CC3`, > 4 mM (inactive).
The result for `Cc1nnsc1C(=O)Nc1cccc(S(N)(=O)=O)c1` reads > 4 mM (inactive).
As for `C=CCSc1[nH]c(=O)cc(C)c1C(N)=O`, the Kd was > 4 mM (inactive).
The result for `O=C(c1ccc(Cl)c(F)c1F)N1CCCC1` reads > 4 mM (inactive); that for `CC(C)(C)C(=O)Nc1ncc(C(F)(F)F)cc1Cl`, > 4 mM (inactive).
On to `CC(=O)Nc1nnc(-c2ccco2)o1`, for which the Kd is > 4 mM (inactive).
The result for `Cc1cc(O)c(NC(=O)c2ccco2)cc1C` reads > 4 mM (inactive).
As for `COc1cc(C/C=C/c2ccccc2)c(OC)cc1O`, the Kd was > 4 mM (inactive).
The result for `O=C(NCc1ccccc1F)c1cccs1` reads > 4 mM (inactive); that for `COc1c(C(=O)N2CCCC2)ccc2ccccc12`, > 4 mM (inactive).
The result for `Cc1cccnc1NC1=NCC(C)S1` (configuration not stated) reads > 4 mM (inactive); that for `N#C/C(=C\c1ccc[nH]1)S(=O)(=O)c1ccccc1`, > 4 mM (inactive).
The result for `CN1CC(=O)Nc2ccc([N+](=O)[O-])cc2C1=O` reads > 4 mM (inactive); that for `Cc1ccc(OCC(=O)n2cnnc2N)c(C)c1`, > 4 mM (inactive).
Regarding `O=C(O)C1Cc2c([nH]c3ccccc23)CN1` (configuration not stated), the Kd was > 4 mM (inactive).
With `COCC(=O)N1CCCc2ccccc21`, the Kd was > 4 mM (inactive).
In the case of `O=C(Nc1cnccn1)c1cccnc1` it was > 4 mM (inactive); in that of `Cc1n[nH]c(C)c1-c1ccccc1C(=O)O`, > 4 mM (inactive).
For the compound `O=C(/C=C1\SC(=O)NC1=O)NCc1ccccc1`, the Kd was > 4 mM (inactive).
The result for `COc1ccc(-c2ccc(OC)cc2C(=O)O)cc1` reads > 4 mM (inactive); that for `O=C(O)c1ccc(-n2cncn2)cc1`, > 4 mM (inactive); that for `CC[C@@H]1[C@@H](O)N2C3C[C@H]1C1C(O)[C@]4(C[C@@H]12)c1ccccc1N(C)[C@@H]34` (some centres not stated), > 4 mM (inactive).
The result for `Nc1ccc(C2SCCS2)cc1` reads > 4 mM (inactive).
